Laboratory results taken from publication PMC8071358, “Targeting of the Essential acpP, ftsZ, and rne Genes in Carbapenem-Resistant Acinetobacter baumannii by Antisense PNA Precision Antibacterials” (Biomedicines, 2021).

Key:
CRAB strains = test: BPP-PNA MIC/MBC summarised over the panel of strains; type: cell-based, Acinetobacter baumannii; details: for bactericidal concentration relative to MIC: CRAB strains; for MIC (complete growth inhibition) over the CRAB strains tested: several A. baumannii strains
Procedure: (§1) MIC values were determined by broth microdilution according to standard protocols with a few modifications. An overnight bacterial cell culture was diluted to approximately 5 × 10^5 CFU/mL in non-cation-adjusted Muller Hinton Broth (MHB). Then, 180 µL bacterial solutions were dispensed into a low-bind 96-well plate (Thermo-Scientific, Roskilde, Denmark) along with 20 µL of BPP-PNA compound (BPP-PNA was serially diluted 2-fold from 16 to 0.5 µM in a 96-well plate). The plate was incubated in a Tecan Genios plate reader (GMI, Minnesota, Ramsey, USA) at 37 °C for 18 h with linear shaking, OD was measured every 20 min at 595 nm. […] The minimum bactericidal concentration (MBC) values were determined by plating 10 µL samples from the wells with no visible turbidity onto Mueller–Hinton agar plates. The MBC is determined the lowest concentration of BPP-PNA that reduces the viability of the initial bacterial inoculum by ≥99.9% (3-log reduction in CFU/mL). A minimum of two independent experiments (biological replicates) of the assay were conducted, and two technical replicates were used in each experiment for each bacterium, compound, and concentration.

A. baumannii ATCC 19606 [1] = test: BPP-PNA MIC, broth microdilution; type: cell-based, Acinetobacter baumannii; details: 37 °C, 18 h
Method in brief: (§2)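 Non-cation-adjusted MHB, inoculum ~5 × 10^5 CFU/mL; BPP-PNA 2-fold series prepared at 16–0.5 µM before addition to wells. 37 °C, 18 h, linear shaking, OD 595 nm every 20 min. ≥2 biological × 2 technical replicates.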

CRAB strain AC44 = test: BPP-PNA MIC, broth microdilution; type: cell-based, Acinetobacter baumannii; details: 37 °C, 18 h
Method in brief: as §2

CRAB strain AC2 = test: BPP-PNA MIC, broth microdilution; type: cell-based, Acinetobacter baumannii; details: 37 °C, 18 h
Method in brief: as §2

HepG2 hepatocytes = test: HepG2 cell toxicity (CellTiter-Glo, ATP); type: cell-based; details: HepG2, 2–4 µM, ATP level
Procedure: The cell toxicity of selected BPP-PNAs was determined using HepG2 hepatocytes grown in DMEM (low glucose) medium supplemented with 100 U/mL penicillin, 100 µg/mL streptomycin, 1% glutamax, and 10% fetal bovine serum (FBS) (Thermofisher Scientific, Roskilde, Denmark), at 37 °C with 5% CO2. Then, 7000–10,000 cells were seeded in each well of a 96-well plate. After 48 h, the BPP-PNAs were added (six replicates for each concentration), followed by overnight incubation. Total amount of adenosine triphosphate (ATP) was used as a measure of cell viability, according to the CellTiter-Glo luminescent cell viability assay (Promega, Madison, WI, USA) kit. BPP-PNAs concentrations ranged from 2.5 to 20 µM. Potassium dichromate (100 µM) was used as a positive control.

P. aeruginosa (PAO1) = test: BPP-PNA MIC, broth microdilution; type: cell-based, Pseudomonas aeruginosa; details: non-target species; MHB without cation (Oxoid)
Procedure: as §1

A. baumannii ATCC 19606 [2] = test: Time-kill assay; type: cell-based, Acinetobacter baumannii; details: ~10^6 CFU/mL, 37 °C, MHB without cation (Sigma)
Procedure: Bacterial cultures were harvested at 0, 90 min, 3 and 6 h. The content of each well was added to 0.9 mL of MHB and centrifuged at 9300× g for 5 min. Supernatants were removed and the cell pellets were suspended in fresh pre-warmed MHB (100 μL). Tenfold serial dilution were prepared, and 10 μL aliquots were plated on Mueller–Hinton agar and incubated overnight at 37 °C to determine the CFU/mL [17].

E. coli K-12 MG1655 = test: BPP-PNA MIC, broth microdilution; type: cell-based, Escherichia coli; details: non-target species; MHB without cation (Oxoid)
Procedure: as §1

A. baumannii SSI1104 = test: BPP-PNA MIC, broth microdilution; type: cell-based, Acinetobacter baumannii; details: 37 °C, 18 h
Method in brief: as §2

CRAB strain AC46 = test: BPP-PNA MIC, broth microdilution; type: cell-based, Acinetobacter baumannii; details: 37 °C, 18 h
A. baumannii ATCC 19606 [3] = test: Envelope disruption, Sytox green uptake; type: cell-based, Acinetobacter baumannii; details: fluorescence over 90 min, 37 °C
Procedure: A culture of A. baumannii ATCC 19606 was grown in MHB (195 rpm at 37 °C), until OD595 = 0.4. Then, bacterial cells were pelleted by centrifugation, washed with 0.9% NaCl, and resuspended in MHB at an OD595 = 0.1. Sytox green dye (Invitrogen) was added to the bacterial culture at a concentration of 2 µM followed by incubation for 5 min at 37 °C, followed by addition of the desired amount of BPP–PNA in a 96-well plate format. Fluorescence intensity (λex = 480 nm, λem = 520 nm) was measured every 5 min for 90 min at 37 °C with continuous shaking.

[4] = Oxoid MHB medium, cation adjusted
[5] = Sigma MHB medium without cation

Row | Substance | concentration with bactericidal activity against carbapenem-resistant A. baumannii (CRAB strains) | bactericidal concentration relative to MIC (CRAB strains) | MIC (complete growth inhibition) over the CRAB strains tested (CRAB strains) | MIC, ATCC 19606 (A. baumannii ATCC 19606 [1]; MHB without cation (Oxoid)) | reduction in cell viability at MIC50 concentration (HepG2 hepatocytes) | MIC, P. aeruginosa (PAO1) (P. aeruginosa (PAO1)) | MIC, E. coli K-12 MG1655 (E. coli K-12 MG1655) | MIC, SSI 1104 (A. baumannii SSI1104; MHB without cation (Oxoid)) | membrane disruption activity (Sytox uptake) (A. baumannii ATCC 19606 [3]; 8 µM) | membrane disruption activity (Sytox uptake) (A. baumannii ATCC 19606 [3]; 2× MIC concentration (4 µM)) | other results
1 | H-(KFF)3K-eg1-GAGGCCATGAC-NH2 (antisense; N-terminal (KFF)3K-eg1 peptide, C-terminal amide, backbone not given here, further chemistry not given here) [PNA 5612, anti-ftsZ peptide-PNA conjugate, match, −3 to +8] | 4 µM | 1–2 × MIC | 2 to 8 µM | 4 µM | no reduction in viability | >16 µM | >16 µM | 4 µM | only a minimal effect | no indication of membrane disruption activity | MIC range against 12 multidrug resistant clinical isolates (CRAB strains; 12 CRAB clinical isolates (Table 3)): 2 to 8 µM; match/mismatch ratio of MIC (CRAB strains; 12 multidrug resistant clinical isolates, 5612 vs 5615): 2–8 fold; MIC50 (CRAB strains; over the CRAB and ATCC 19606 strains of Table 3, MHB without cation (Oxoid)): 4 µM; MIC of match PNA lower than mismatch control (mismatch discrimination) (CRAB strains; strains of Table 2 (5612 vs 5615) or Table 4 (5656 vs 5822)): 2–4 fold; MIC, AC44 (CRAB strain AC44; MHB without cation (Oxoid)): 8 µM; MIC, AC2 (CRAB strain AC2; MHB without cation (Oxoid)): 2 µM; CFU reduction in time-kill (A. baumannii ATCC 19606 [2]; 4 μM, after 3 h): more than three order of magnitude CFU reduction; MIC, AC46 (CRAB strain AC46; MHB without cation (Oxoid)): 8 µM
2 | H-(KFF)3K-eg1-TGATTTGCCAC-NH2 (antisense; N-terminal (KFF)3K-eg1 peptide, C-terminal amide, backbone not given here, further chemistry not given here) [PNA 5639, anti-acpP peptide-PNA conjugate, match, +1 to +11] | 4 µM | 1–2 × MIC | 1 to 2 µM | 2 µM | no reduction in viability | >16 µM | >16 µM | 2 µM | only a minimal effect | no indication of membrane disruption activity | decrease of potency in cation adjusted MHB (CRAB strains; cation adjusted MHB against MHB without cation): 1–4 fold; MIC, ATCC 19606 (A. baumannii ATCC 19606 [1]; [4]): 4 µM; MIC, ATCC 19606 (A. baumannii ATCC 19606 [1]; Sigma MHB medium without cation, ~5 × 10^5 CFU/mL, OD595 < 0.1): 2 µM; MIC, AC44 (CRAB strain AC44; [4]): 4 µM; MIC, AC44 (CRAB strain AC44; [5]): 1 µM; MIC, AC2 (CRAB strain AC2; [4]): 4 µM; MIC, AC2 (CRAB strain AC2; [5]): 1 to 2 µM; CFU reduction in time-kill (A. baumannii ATCC 19606 [2]; 4 or 8 μM, after 3 h treatment): 4 log; MIC, SSI 1104 (A. baumannii SSI1104; [4]): 4 µM; MIC, SSI 1104 (A. baumannii SSI1104; [5]): 2 µM; MIC, AC46 (CRAB strain AC46; [4]): 4 µM; MIC, AC46 (CRAB strain AC46; [5]): 1 µM
